From US11111232B2, “Substituted cyclobutylpyridine and cyclobutylpyrimidine compounds as indoleamine 2,3-dioxygenase (IDO) inhibitors” (MERCK SHARP & DOHME CORP., priority 2017, dated 2021)

Biological target: IDO1 (Homo sapiens, UniProt P14902)
Assay: IDO1 HEK293 cellular assay
Format: cell-based
Conditions: HEK293 cells transfected with Flag-IDO1 vector, 20-24 hours, fluorescence readout
Method: IDO1 HEK293 Cellular Assay
Compounds to be tested were serially diluted in ten 3-fold steps in DMSO starting from 10 mM DMSO stocks. Compound dilutions or DMSO alone were then dispensed from the dilution plate into a Greiner black 384-well assay plate (catalog #781086) using an Echo 550 acoustic liquid handler (Labcyte).
HEK293 cell pellets were resuspended to 5×10^5 cells/mL in complete HEK293 culture media (89% DMEM, 10% FBS, 1% penicillin/streptomycin). Suspended cells (2 mL) were dispensed into each well of a 6-well Corning plate (Catalog # 3516). Cells were allowed to attach and were incubated for 20 hours at 37° C. in a 5% CO2 incubator. Flag-IDO1 vector (Genscript True ORF Gold, 2 ug) in 150 uL of Opti-MEM medium was added to each well of a Corning 24 well plate (Cat # 3527) and incubated for 5 minutes at room temperature. To each well of the 24-well plate was added […] Lipofectamine 2000 (Gibco) and the plate incubated at room temperature for 20-30 minutes. To each well of attached cells in the 6-well plate, […] of the transfection mix from the 24-well plate was gently added to each well and IDO1 protein was allowed to express for 24-30 hours at 37 degrees Celsius in a 5% CO2 incubator.
Media was removed from the cells which were then washed with 2 mL Dulbecco's phosphate-buffered saline (DPBS). After removal of DPBS, 0.5 mL of TrypLE (Gibco) was added and incubated at 5 minutes until cells lift from the surface of the wells. Complete HEK293 culture media (4 mL) was added to each well and cells were collected and pooled into a conical tube. Cells were pelleted at 200×g for 5 minutes and resuspended in an equal volume of complete DMEM medium. Cells were diluted to 4×10^5 cells per mL in complete HEK293 media. L-Tryptophan was added to added to give a final concentration of […]. The diluted transfected cells […] or nontransfected cells […] were dispensed into wells of Greiner black 384-well assay plates (catalog #781086) containing previously diluted compounds. The plate is briefly mixed and centrifuged at 200×g for 10 seconds to collect cells at the bottom of the plate. Plates were covered and incubated for 20-24 hours at 37 degrees C. in a 5% CO2 incubator. Afterwards […] of 0.5 M methyl isonipecotate in dimethyl sulfoxide was added to each well, mixed, sealed, and centrifuged at 500 rpm for 10 seconds. Plates were incubated at 37 degrees in a 5% CO2 incubator overnight to develop fluoresence. The plates are allowed to cool and then centrifuged for 1 minute at 1000×g. The resulting fluoresence was measured in an Envision plate reader (Perkin Elmer) with a 400/25 nm excitation filter and an 510/20 nm emission filter.
The fluoresence intensity of each well was corrected for the background observed in wells with untransfected cells and was expressed as a fraction of the intensity observed in wells of IDO1 transfected cells and DMSO only. Potencies were calculated by linear least squares fit to the four parameter logistic IC50 equation.

IDO1, sequence (P14902 whole entry): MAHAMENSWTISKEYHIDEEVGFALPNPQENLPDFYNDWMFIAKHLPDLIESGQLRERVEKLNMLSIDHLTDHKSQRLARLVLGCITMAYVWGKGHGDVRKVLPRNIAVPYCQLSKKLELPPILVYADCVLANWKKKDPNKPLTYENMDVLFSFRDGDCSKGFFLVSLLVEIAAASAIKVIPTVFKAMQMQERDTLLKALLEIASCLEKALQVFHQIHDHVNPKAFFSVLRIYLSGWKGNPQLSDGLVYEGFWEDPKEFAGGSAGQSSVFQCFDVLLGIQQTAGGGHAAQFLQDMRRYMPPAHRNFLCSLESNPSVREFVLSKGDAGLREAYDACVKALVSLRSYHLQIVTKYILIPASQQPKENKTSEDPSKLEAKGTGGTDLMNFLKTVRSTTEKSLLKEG

- IC50: 7 nM
Compound: O=C(Nc1ccc(C2(C(=O)Nc3ccc(F)cc3)CCC2)cn1)C1CCCCC1 [Example 15, N-(5-{1-[(4-fluorophenyl)carbamoyl]cyclobutyl}pyridin-2-yl) cyclohexanecarboxamide]
